Test results as given in ChEMBL document CHEMBL1144828, “Isoxazolone based inhibitors of p38 MAP kinases” (J Med Chem, 2008).

Assays:
[1] = target: T1, Mitogen-activated protein kinase 14 (Homo sapiens, UniProt Q16539); test: Inhibition of p38-alpha MAPK at 10 uM
[2] = target: T1, Mitogen-activated protein kinase 14; test: Inhibition of p38-alpha MAPK

T1 sequence (Q16539 whole entry): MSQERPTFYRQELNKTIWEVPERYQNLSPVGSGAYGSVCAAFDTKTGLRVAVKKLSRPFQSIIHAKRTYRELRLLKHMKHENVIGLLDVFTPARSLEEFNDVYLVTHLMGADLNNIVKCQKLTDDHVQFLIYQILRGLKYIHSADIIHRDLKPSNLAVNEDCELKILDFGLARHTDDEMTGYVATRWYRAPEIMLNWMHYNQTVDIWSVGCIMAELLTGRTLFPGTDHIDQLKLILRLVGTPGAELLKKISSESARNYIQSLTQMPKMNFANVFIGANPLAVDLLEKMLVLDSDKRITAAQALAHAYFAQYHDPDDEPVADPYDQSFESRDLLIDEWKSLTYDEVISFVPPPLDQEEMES

**Q.** Which inhibition [1] does the source give for `CC(c1ccccc1)n1oc(=O)c(-c2ccc(F)cc2)c1-c1ccncc1` (stereo unspecified) here?
**A.** 27.5%

**Q.** With `O=c1on(CC2CC2)c(-c2ccncc2)c1-c1ccc(F)cc1` as the compound, how does the IC50 [2] read?
**A.** 2130 nM

**Q.** Which IC50 [2] does the source give for `O=c1on(C(=S)Nc2ccc(F)cc2)c(-c2ccncc2)c1-c1ccc(F)cc1` here?
**A.** 350 nM

**Q.** For `OCCCOc1onc(-c2ccc(F)cc2)c1-c1ccncc1`, which inhibition [1] is on record?
**A.** 9.8%

**Q.** `COc1onc(-c2ccc(F)cc2)c1-c1ccncc1` was tested. Which inhibition [1] did it give?
**A.** 26.5%

**Q.** With `O=c1on(CCO)c(-c2ccncc2)c1-c1ccc(F)cc1` as the compound, how does the IC50 [2] read?
**A.** 2500 nM

**Q.** How did the IC50 [2] turn out when `CCn1oc(=O)c(-c2ccc(F)cc2)c1-c1ccncc1` was run?
**A.** 1630 nM

**Q.** With `Fc1ccc(-c2noc(OCC3CC3)c2-c2ccncc2)cc1` as the compound, how does the inhibition [1] read?
**A.** 26.4%

**Q.** For `CCOC(=O)CCNC(=O)n1oc(=O)c(-c2ccc(F)cc2)c1-c1ccncc1`, which IC50 [2] is on record?
**A.** 970 nM

**Q.** How did the IC50 [2] turn out when `COCn1oc(=O)c(-c2ccc(F)cc2)c1-c1ccncc1` was run?
**A.** 2130 nM

**Q.** `CC(C)n1oc(=O)c(-c2ccc(F)cc2)c1-c1ccncc1` was tested. Which inhibition [1] did it give?
**A.** 42.2%

**Q.** `Cc1ccc(S(=O)(=O)n2oc(=O)c(-c3ccc(F)cc3)c2-c2ccncc2)cc1` was tested. Which IC50 [2] did it give?
**A.** 480 nM

**Q.** For `OCCOc1onc(-c2ccc(F)cc2)c1-c1ccncc1`, which inhibition [1] is on record?
**A.** 14.7%

**Q.** For `COCCOCn1oc(=O)c(-c2ccc(F)cc2)c1-c1ccncc1`, which IC50 [2] is on record?
**A.** 3830 nM

**Q.** `O=c1on(CCCO)c(-c2ccncc2)c1-c1ccc(F)cc1` was tested. Which IC50 [2] did it give?
**A.** 1150 nM

**Q.** Which IC50 [2] does the source give for `O=C(Nc1ccc(F)cc1)n1oc(=O)c(-c2ccc(F)cc2)c1-c1ccncc1` here?
**A.** 320 nM

**Q.** How did the inhibition [1] turn out when `Fc1ccc(-c2noc(OCC3CO3)c2-c2ccncc2)cc1` (stereo unspecified) was run?
**A.** 23.7%

**Q.** How did the inhibition [1] turn out when `COCCOc1onc(-c2ccc(F)cc2)c1-c1ccncc1` was run?
**A.** 14.4%

**Q.** For `CSc1nc(-c2ccc(F)cc2)c(-c2ccncc2)n1CCCO`, which IC50 [2] is on record?
**A.** 813 nM

**Q.** With `CCNC(=O)n1oc(=O)c(-c2ccc(F)cc2)c1-c1ccncc1` as the compound, how does the IC50 [2] read?
**A.** 230 nM

**Q.** With `CC(=O)n1oc(=O)c(-c2ccc(F)cc2)c1-c1ccncc1` as the compound, how does the IC50 [2] read?
**A.** 120 nM

**Q.** `CC(C)Oc1onc(-c2ccc(F)cc2)c1-c1ccncc1` was tested. Which inhibition [1] did it give?
**A.** 11.9%

**Q.** `O=C1c2ccccc2C(=O)N1CCn1oc(=O)c(-c2ccc(F)cc2)c1-c1ccncc1` was tested. Which inhibition [1] did it give?
**A.** 41.9%

**Q.** With `O=c1o[nH]c(-c2ccc(F)cc2)c1-c1ccncc1` as the compound, how does the IC50 [2] read?
**A.** 1400 nM

**Q.** How did the IC50 [2] turn out when `Oc1onc(-c2ccncc2)c1-c1ccc(F)cc1` was run?
**A.** 390 nM

**Q.** Which inhibition [1] does the source give for `O=c1on(CCN2CCCCC2)c(-c2ccncc2)c1-c1ccc(F)cc1` here?
**A.** 38.3%

**Q.** For `CCOc1onc(-c2ccc(F)cc2)c1-c1ccncc1`, which inhibition [1] is on record?
**A.** 13.6%

**Q.** `CCOCCn1oc(=O)c(-c2ccc(F)cc2)c1-c1ccncc1` was tested. Which IC50 [2] did it give?
**A.** 1320 nM

**Q.** How did the inhibition [1] turn out when `COCOc1onc(-c2ccc(F)cc2)c1-c1ccncc1` was run?
**A.** 27.8%

**Q.** How did the IC50 [2] turn out when `O=c1on(CC2CO2)c(-c2ccncc2)c1-c1ccc(F)cc1` (stereo unspecified) was run?
**A.** 3830 nM

**Q.** For `CSCCn1oc(=O)c(-c2ccc(F)cc2)c1-c1ccncc1`, which IC50 [2] is on record?
**A.** 3900 nM
